Assay results reported in patent US20240025862A1, “SUBSTITUTED N-PHENYLURACILS AND SALTS THEREOF, AND USE THEREOF AS HERBICIDAL ACTIVE SUBSTANCES” (Bayer Aktiengesellschaft, priority 2020, published 2024).

Tests used:
Type in all cases: in vivo
[1] = tested on: Polygonum convolvulus (POLCO); experiment: Post-emergence herbicidal action, greenhouse pot test
Description: (§1) Seeds of monocotyledonous and dicotyledonous weeds and crop plants were placed in sandy loam in plastic or wood-fiber pots, covered with soil and cultivated in a greenhouse under controlled growth conditions. 2 to 3 weeks after sowing, the test plants were treated at the one-leaf stage. The compounds of the invention, formulated in the form of wettable powders (WP) or as emulsion concentrates (EC), were then sprayed onto the green parts of the plants as aqueous suspension or emulsion with addition of 0.5% additive at a water application rate of 600 l/ha (converted). After the test plants had been kept in the greenhouse under optimum growth conditions for about 3 weeks, the activity of the preparations was rated visually in comparison to untreated controls. For example, 100% activity=the plants have died, 0% activity=like control plants.
(§2) Tables A1 to A14 below show the effects of selected compounds of the general formula (I) according to Tables I.1 to I.33 on various harmful plants and at an application rate corresponding to 20 g/ha and less, which were obtained by the experimental method specified above. The appendices “a”, “b” and “c” give differentiation by different dosage with otherwise the same harmful plants tested.

[2] = tested on: Amaranthus retroflexus (AMARE); experiment: as above; conditions: rated visually after about 3 weeks vs untreated controls, 100% = plants have died
Description: as §1, §2

[3] = tested on: Pharbitis purpurea (PHBPU); experiment: as above
Description: as §1, §2

Viola tricolor (VIOTR) = experiment: as above
Description: as §1, §2

[4] = tested on: Abutilon theophrasti (ABUTH); experiment: as above; conditions: rated visually after about 3 weeks vs untreated controls, 100% = plants have died
Description: as §1, §2

Veronica persica (VERPE) = experiment: as above
Description: as §1, §2

[5] = tested on: Matricaria inodora (MATIN); experiment: Post-emergence herbicidal action, greenhouse pot test (also comparative test C)
Description: as §1, §2
(§3) C. Comparative Herbicidal Action and Crop Plant Compatibility of Two Inventive Compounds (I.7-1 and I.7-115) with a Compound of Similar Structure Known from the Literature (WO2002/098227, a-17 and EP1106607, 3-14) in Post-Emergence Treatment.
(§4) Tables C1-C4 below show the effects of two inventive compounds (I.7-1 and I.7-115) together with a compound of similar structure known from the literature (a-17 in WO2002/098227, and 3-14 in EP1106607) in different crop plants at an application rate corresponding to 5 g/ha or less, which have been obtained by the aforementioned experimental procedure.

Setaria viridis (SETVI) = experiment: as above; conditions: for Post-emergence action against SETVI: 20 g/ha
Description: as §1, §2, §3, §4

[6] = tested on: Alopecurus myosuroides (ALOMY); experiment: as above; conditions: rated visually after about 3 weeks vs untreated controls, 100% = plants have died
Description: as §1, §2, §3, §4

[7] = tested on: Echinochloa crus-galli (ECHCG); experiment: as above
Description: as §1, §2, §3, §4

Zea mays (ZEAMX) = experiment: Post-emergence crop plant compatibility, greenhouse pot test; conditions: 1.25 g/ha, vs untreated controls
Description: as §1
(§5) The observed effects on selected crop plants are reported here in comparison to the untreated controls (values in %). The appendices “a”, “b” and “c” give differentiation by different dosage with otherwise the same crop plants tested.

[8] = tested on: Triticum aestivum (TRZAS); experiment: as above; conditions: vs untreated controls
Description: as §1, §5

Oryza sativa (ORYSA) = experiment: Post-emergence crop plant compatibility, greenhouse pot test (also comparative test C); conditions: vs untreated controls
Description: as §1, §5, §3

SMILES	Post-emergence action against POLCO in % ([1]; dosage 1.25 g/ha) [%]	Post-emergence action against POLCO in % ([1]; dosage 20 g/ha) [%]	Post-emergence action at 1.25 g/ha against AMARE in % [2] [%]	Post-emergence action at 5 g/ha against AMARE in % [2] [%]	Post-emergence action at 20 g/ha against AMARE in % [2] [%]	Post-emergence action against PHBPU in % ([3]; dosage 5 g/ha) [%]	Post-emergence action against PHBPU in % ([3]; dosage 20 g/ha) [%]	Post-emergence action against VIOTR (Viola tricolor (VIOTR); 5 g/ha) [%]	Post-emergence action against VIOTR (Viola tricolor (VIOTR); 20 g/ha) [%]	Post-emergence action at 5 g/ha against ABUTH in % [4] [%]	Post-emergence action at 20 g/ha against ABUTH in % [4] [%]	Post-emergence action against VERPE (Veronica persica (VERPE); 5 g/ha) [%]	Post-emergence action against VERPE (Veronica persica (VERPE); 20 g/ha) [%]	Post-emergence action against MATIN in % ([5]; dosage 20 g/ha) [%]	Post-emergence action against SETVI (Setaria viridis (SETVI)) [%]	Post-emergence action against SETVI in % (Setaria viridis (SETVI); dosage 1.25 g/ha) [%]	Post-emergence action against SETVI in % (Setaria viridis (SETVI); dosage 5 g/ha) [%]	Post-emergence action against ECHCG in % ([7]; dosage 5 g/ha) [%]	Post-emergence action against ECHCG in % ([7]; dosage 20 g/ha) [%]	Post-emergence action against TRZAS (crop plant compatibility) ([8]; 1.25 g/ha) [%]	further results
COCCOCCOC(=O)COc1ccc(F)cc1Oc1cc(-n2c(=O)cc(C(F)(F)F)n(C)c2=O)c(F)cc1Cl [I.23-23]	100	100	100	100	100	100	100	100	100	100	100	100	100	100	100	100	100	100	100	20	Post-emergence action against POLCO in % ([1]; dosage 5 g/ha): 100%; Post-emergence action against PHBPU in % ([3]; dosage 1.25 g/ha): 100%; Post-emergence action against VIOTR (Viola tricolor (VIOTR); 1.25 g/ha): 100%; Post-emergence action at 20 g/ha against ALOMY in % [6]: 100%; Post-emergence action against ZEAMX (crop plant compatibility) (Zea mays (ZEAMX)): 20%
Cn1c(C(F)(F)F)cc(=O)n(-c2cc(Oc3c(F)cccc3OCC(=O)OCC#N)c(Cl)cc2F)c1=O [I.19-176]	100	100	100	100	100	100	100	100	100	100	100	100	100	100	100	90	100	100	100	20	Post-emergence action against POLCO in % ([1]; dosage 5 g/ha): 100%; Post-emergence action against PHBPU in % ([3]; dosage 1.25 g/ha): 100%; Post-emergence action against VIOTR (Viola tricolor (VIOTR); 1.25 g/ha): 80%; Post-emergence action at 1.25 g/ha against ABUTH in % [4]: 100%; Post-emergence action against VERPE (Veronica persica (VERPE); 1.25 g/ha): 100%; Post-emergence action against ORYSA (crop plant compatibility) (Oryza sativa (ORYSA); 1.25 g/ha): 0%; Post-emergence action against MATIN in % ([5]; dosage 5 g/ha): 100%; Post-emergence action at 20 g/ha against ALOMY in % [6]: 80%
COCCOC(=O)COc1ccccc1Oc1cc(-n2c(=O)cc(C(F)(F)F)n(C)c2=O)c(F)cc1C#N [I.9-1]	–	100	100	100	100	100	100	100	100	100	100	100	100	100	100	80	100	90	100	0	Post-emergence action against VIOTR (Viola tricolor (VIOTR); 1.25 g/ha): 100%; Post-emergence action at 1.25 g/ha against ABUTH in % [4]: 100%; Post-emergence action against VERPE (Veronica persica (VERPE); 1.25 g/ha): 100%; Post-emergence action against ORYSA (crop plant compatibility) (Oryza sativa (ORYSA); 1.25 g/ha): 0%; Post-emergence action against ORYSA (crop plant compatibility) (Oryza sativa (ORYSA); 5 g/ha): 20%; Post-emergence action against MATIN in % ([5]; dosage 5 g/ha): 80%; Post-emergence action against ZEAMX (crop plant compatibility) (Zea mays (ZEAMX)): 10%; Post-emergence action against TRZAS (crop plant compatibility) ([8]; 5 g/ha): 10%; Post-emergence action against TRZAS (crop plant compatibility) ([8]; 20 g/ha): 10%
COCCOCCOC(=O)COc1cccc(F)c1Oc1cc(-n2c(=O)cc(C(F)(F)F)n(C)c2=O)c(F)cc1Cl [I.19-23]	100	100	100	100	100	100	100	100	100	100	100	100	100	100	100	100	100	100	100	10	Post-emergence action against POLCO in % ([1]; dosage 5 g/ha): 100%; Post-emergence action against PHBPU in % ([3]; dosage 1.25 g/ha): 100%; Post-emergence action against VERPE (Veronica persica (VERPE); 1.25 g/ha): 100%; Post-emergence action against ORYSA (crop plant compatibility) (Oryza sativa (ORYSA); 1.25 g/ha): 10%; Post-emergence action against MATIN in % ([5]; dosage 5 g/ha): 100%; Post-emergence action at 5 g/ha against ALOMY in % ([6]; 5 g/ha): 80%; Post-emergence action at 20 g/ha against ALOMY in % [6]: 100%
